# Results reported in publication PMC4961579 (Journal of neurochemistry, 2016).
# What was measured:
# Test in all cases: two-electrode voltage clamp, micro-transplanted oocytes
# Format in all cases: cell-based
# [1] = target: AMPA receptor with TARP gamma-8 (native, rat hippocampal synaptosomes) (Rattus norvegicus, UniProt P19490+P19491+Q8VHW5); details: read-out: % inhibition at 10 μM
# [2] = tested on: NMDA receptor (native synaptic, rat prefrontal cortex synaptosomes); details: 300 µM NMDA, 30 µM glycine, -100 mV, pH 7.4
# [3] = tested on: AMPA receptor (native synaptic, rat prefrontal cortex synaptosomes); details: antagonist; 100 µM AMPA + 30 µM cyclothiazide; -100 mV, pH 7.4
# [4] = tested on: AMPA receptor (native synaptic, human cortical synaptosomes); details: antagonist; 100 µM AMPA + 100 µM cyclothiazide; -100 mV, pH 7.4
# [5] = tested on: GABAA receptor (native synaptic, human cortical synaptosomes); details: positive allosteric modulator; 30 µM GABA; legend says 212% potentiation
# Chain of AMPA receptor with TARP gamma-8 (native, rat hippocampal synaptosomes) (Q8VHW5 whole entry): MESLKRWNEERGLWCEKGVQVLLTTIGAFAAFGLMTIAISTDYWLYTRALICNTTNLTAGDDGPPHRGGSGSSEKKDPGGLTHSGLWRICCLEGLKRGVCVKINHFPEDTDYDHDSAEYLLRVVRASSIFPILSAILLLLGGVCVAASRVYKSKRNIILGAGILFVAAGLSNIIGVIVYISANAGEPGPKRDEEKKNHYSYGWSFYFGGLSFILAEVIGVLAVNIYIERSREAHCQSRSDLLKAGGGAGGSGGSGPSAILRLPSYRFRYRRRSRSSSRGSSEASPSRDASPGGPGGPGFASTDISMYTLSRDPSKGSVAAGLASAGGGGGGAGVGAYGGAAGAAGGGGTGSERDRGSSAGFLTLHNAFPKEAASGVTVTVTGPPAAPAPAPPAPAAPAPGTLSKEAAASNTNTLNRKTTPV
# Chain of AMPA receptor with TARP gamma-8 (native, rat hippocampal synaptosomes) (P19490 19-907): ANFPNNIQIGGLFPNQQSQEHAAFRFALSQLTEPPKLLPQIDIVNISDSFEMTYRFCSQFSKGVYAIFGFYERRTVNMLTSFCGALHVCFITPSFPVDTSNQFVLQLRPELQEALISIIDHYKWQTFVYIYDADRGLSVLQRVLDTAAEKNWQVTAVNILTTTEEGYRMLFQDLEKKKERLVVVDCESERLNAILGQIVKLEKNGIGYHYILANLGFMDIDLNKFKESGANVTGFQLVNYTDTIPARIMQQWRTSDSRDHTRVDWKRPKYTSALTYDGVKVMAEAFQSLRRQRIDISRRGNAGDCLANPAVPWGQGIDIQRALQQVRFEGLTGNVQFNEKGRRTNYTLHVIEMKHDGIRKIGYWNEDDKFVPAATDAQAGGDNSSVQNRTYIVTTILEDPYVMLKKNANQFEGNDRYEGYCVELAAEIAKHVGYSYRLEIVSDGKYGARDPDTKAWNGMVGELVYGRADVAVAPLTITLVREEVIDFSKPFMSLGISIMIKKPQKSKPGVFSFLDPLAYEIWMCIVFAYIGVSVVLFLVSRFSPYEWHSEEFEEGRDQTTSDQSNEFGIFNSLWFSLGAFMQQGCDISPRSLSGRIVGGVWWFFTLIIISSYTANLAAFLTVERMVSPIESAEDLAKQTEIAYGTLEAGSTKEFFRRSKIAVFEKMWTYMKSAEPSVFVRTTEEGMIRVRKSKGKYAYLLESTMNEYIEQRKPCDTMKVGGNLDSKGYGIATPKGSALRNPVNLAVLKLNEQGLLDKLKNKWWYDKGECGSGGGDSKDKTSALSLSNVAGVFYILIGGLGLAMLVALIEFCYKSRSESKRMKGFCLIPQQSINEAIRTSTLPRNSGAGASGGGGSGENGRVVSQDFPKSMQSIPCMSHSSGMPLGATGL
# Chain of AMPA receptor with TARP gamma-8 (native, rat hippocampal synaptosomes) (P19491 22-883): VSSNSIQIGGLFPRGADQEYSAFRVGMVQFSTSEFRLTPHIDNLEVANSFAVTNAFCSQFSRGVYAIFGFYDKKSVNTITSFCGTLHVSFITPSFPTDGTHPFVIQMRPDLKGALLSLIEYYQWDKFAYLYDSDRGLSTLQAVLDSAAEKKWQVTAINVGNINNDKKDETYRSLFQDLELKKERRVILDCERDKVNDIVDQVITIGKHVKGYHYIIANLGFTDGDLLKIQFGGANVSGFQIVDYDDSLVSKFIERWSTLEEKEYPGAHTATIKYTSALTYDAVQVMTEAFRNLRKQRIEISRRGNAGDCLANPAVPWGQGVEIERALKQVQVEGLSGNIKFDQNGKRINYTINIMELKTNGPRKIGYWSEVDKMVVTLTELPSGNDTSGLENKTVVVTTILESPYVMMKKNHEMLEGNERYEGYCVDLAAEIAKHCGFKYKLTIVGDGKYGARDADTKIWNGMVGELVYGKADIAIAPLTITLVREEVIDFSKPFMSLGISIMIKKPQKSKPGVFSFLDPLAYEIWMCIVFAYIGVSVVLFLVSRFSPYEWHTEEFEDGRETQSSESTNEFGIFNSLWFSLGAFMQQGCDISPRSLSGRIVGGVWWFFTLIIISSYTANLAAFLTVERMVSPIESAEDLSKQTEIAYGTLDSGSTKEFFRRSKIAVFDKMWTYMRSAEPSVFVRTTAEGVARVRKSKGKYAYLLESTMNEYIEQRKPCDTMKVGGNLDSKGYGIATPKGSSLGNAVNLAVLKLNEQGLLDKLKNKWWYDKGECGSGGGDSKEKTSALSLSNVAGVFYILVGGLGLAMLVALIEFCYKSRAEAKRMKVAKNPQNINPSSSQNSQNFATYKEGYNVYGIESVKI
smiles,measurement,setting,value
C[C@@H](c1ccc2[nH]c(=O)sc2c1)c1ccn(-c2ccc(OCCO)cn2)n1 [LY3130481],inhibition at 10 µM,[1],55 ± 6.8%
C[C@]12N[C@H](Cc3ccccc31)c1ccccc12 [MK801],% inhibition at 1 μM,[2]; non-competitive antagonist,100%
CC(C(O)c1ccc(O)cc1)N1CCC(Cc2ccccc2)CC1 (stereo not drawn) [ifenprodil],% inhibition at 10 μM,[2]; GluN2B-selective antagonist,75%
N#Cc1ccccc1-c1cc(-c2ccccn2)cn(-c2ccccc2)c1=O [perampanel],% inhibition at 30 μM,[3],97%
same,% inhibition at 30 μM,[4],91%
Cc1ccc(-c2nc3ccc(C)cn3c2CC(=O)N(C)C)cc1 [zolpidem],% of control at 1 μM,[5],212%
